Measurements from patent US5169769A, “Method of hydroxylating substituted 3-aminopyridinones using mammalian tissue” (Merck & Co., Inc., priority 1991, dated 1992).
pIC50: −log10 of the molar value.

Target: T1, recombinant HIV reverse transcriptase (HIV RTR) (Human immunodeficiency virus type 1 group M subtype B, UniProt P04585)
T1 construct: recombinant HIV reverse transcriptase (HIV RTR)
Assay: Reverse Transcriptase Assay: incorporation of tritiated deoxyguanosine monophosphate into acid-precipitable cDNA
Type: biochemical
Settings: purified HIV RTR; poly r(C).oligo d(G)12-18 and dGTP at about Km; 37° C. for 45 minutes; read-out: calculated IC50
Procedure: Reverse Transcriptase Assay
The assay measures the incorporation of tritiated deoxyguanosine monophosphate by recombinant HIV reverse transcriptase (HIV RTR) (or other RT) into acid-precipitable cDNA at the Km values of dGTP and poly r(C).cndot.oligo d(G)12-18. Compounds (I) and (II) inhibit this incorporation.
Thirty uL of a reaction mixture containing equal volumes of: 500 mM Tris.cndot.HCl (pH 8.2), 300 mM MgCl2, 1200 mM KCl, 10 mM DTT, 400 μg/mL poly r(c).cndot.oligo d(G) [prepared by dissolving 1.5 mg (25 U) poly r(C).cndot.oligo d(G) in 1.5 ml sterile distilled H2 O and diluting to 400 μg/ml], 0.1 μCi/μl [^3 H] dGTP, 160 μM dGTP, were added to 10 μl sterile distilled H2 O, 2.5 μl of potential inhibitor. Ten μL of 3.2 nM purified HIV RTR were added to start the reaction. The mixture was incubated at 37° C. for 45 minutes.
After incubation was complete, the tubes were cooled in ice for 5 minutes. Ice-cold 13% TCA containing 10 mM NaPPi (200 μl) was added and the mixture incubated on ice for 30 minutes. The precipitated cDNA was removed by filtration using presoaked glass filters [TCA, NaPPi ]. The precipitate was then washed with 1N HCl, 10 mM NaPPi. The filter discs were then counted in a scintillation counter. […]
Compounds (I) and (II) were evaluated using the methodology described above.

| SMILES | pIC50 |
| --- | --- |
| Cc1[nH]c(=O)c(NCc2nc3c(C)ccc(C)c3o2)cc1C(C)O (centres unmarked) [Compound (I), 3-[(4,7-dimethylbenzoxazol-2-yl)methylamino]-5-(1-hydroxyethyl)-6-methyl-2(1H)-pyridinone] | ~6.39 |
| CCc1cc(NCc2nc3c(C)ccc(C)c3o2)c(=O)[nH]c1CO [Compound (II), 3-[(4,7-dimethylbenzoxazol-2-yl)methylamino]-5-ethyl-6-hydroxymethyl-2(1H)-pyridinone] | ~7.48 |
